Assays:
[1] = molecular target: T1, Carbonic anhydrase 9 (Homo sapiens, UniProt Q16790)
[2] = molecular target: T2, Carbonic anhydrase 1 (Homo sapiens, UniProt P00915)
[3] = molecular target: T3, Carbonic anhydrase 12 (Homo sapiens, UniProt O43570)
[4] = molecular target: T4, Carbonic anhydrase 2 (Homo sapiens, UniProt P00918)
[5] = molecular target: T5, Carbonic anhydrase 4 (Homo sapiens, UniProt P22748)
[6] = molecular target: T4, Carbonic anhydrase 2; remark: listed apart in the source
[7] = molecular target: T2, Carbonic anhydrase 1; remark: listed apart in the source
[8] = molecular target: T1, Carbonic anhydrase 9; remark: listed apart in the source
[9] = molecular target: T3, Carbonic anhydrase 12; remark: listed apart in the source
[10] = molecular target: T5, Carbonic anhydrase 4; remark: listed apart in the source
[11] = molecular target: T1, Carbonic anhydrase 9; remark: listed apart in the source

T2 sequence (P00915 whole entry): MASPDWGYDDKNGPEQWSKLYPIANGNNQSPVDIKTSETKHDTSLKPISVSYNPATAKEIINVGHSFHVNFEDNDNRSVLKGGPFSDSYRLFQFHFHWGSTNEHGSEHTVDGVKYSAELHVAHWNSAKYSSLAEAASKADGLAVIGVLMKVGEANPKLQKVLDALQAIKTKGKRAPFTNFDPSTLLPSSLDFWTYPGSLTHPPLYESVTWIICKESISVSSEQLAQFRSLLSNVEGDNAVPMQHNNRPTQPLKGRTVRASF
T5 sequence (P22748 whole entry): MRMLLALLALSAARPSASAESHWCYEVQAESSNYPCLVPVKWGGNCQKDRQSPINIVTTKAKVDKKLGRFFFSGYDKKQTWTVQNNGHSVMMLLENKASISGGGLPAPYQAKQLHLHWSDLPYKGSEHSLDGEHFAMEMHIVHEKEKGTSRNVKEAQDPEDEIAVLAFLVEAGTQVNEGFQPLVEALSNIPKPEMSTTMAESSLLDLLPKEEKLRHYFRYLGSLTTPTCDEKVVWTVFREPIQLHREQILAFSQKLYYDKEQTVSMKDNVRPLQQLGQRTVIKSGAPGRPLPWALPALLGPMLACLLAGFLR
T3 sequence (O43570 whole entry): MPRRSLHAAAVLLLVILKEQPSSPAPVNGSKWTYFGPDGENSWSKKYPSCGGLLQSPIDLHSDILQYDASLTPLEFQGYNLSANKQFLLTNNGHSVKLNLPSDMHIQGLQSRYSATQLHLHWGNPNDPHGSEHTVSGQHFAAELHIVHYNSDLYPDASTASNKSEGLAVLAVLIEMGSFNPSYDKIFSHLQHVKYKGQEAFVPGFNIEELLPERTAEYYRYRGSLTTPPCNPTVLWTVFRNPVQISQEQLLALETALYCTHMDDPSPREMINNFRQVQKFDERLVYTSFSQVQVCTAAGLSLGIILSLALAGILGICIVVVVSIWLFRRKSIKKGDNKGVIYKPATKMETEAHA

For `Cc1ncc([N+](=O)[O-])n1CCS(N)(=O)=O`, the IC50 [1] was 0.643 µM.
Compound `Cn1c(-c2ccc(Cl)cc2)nc2cc(B(O)O)ccc21` has an IC50 [2] of over 0.36 µM, an IC50 [3] of over 0.36 µM and an IC50 [4] of over 0.36 µM. It also gave an IC50 [1] of over 0.36 µM.
`COC(=O)c1ccc2c(c1)C(=O)N(c1ccccc1)C2=O` gave a Ki [5] of over 10 µM, a Ki [6] of over 10 µM and a Ki [7] of over 10 µM. It also gave a Ki [8] of over 10 µM.
For `O=C(O)c1ccc2c(c1)C(=O)N(c1ccccc1)C2=O`, the Ki [5] was over 10 µM, the Ki [6] was over 10 µM and the Ki [7] was over 10 µM. The Ki [8] was over 10 µM.
`Cn1c(-c2ccccc2)nc2cc(C(N)=O)ccc21` was tested, and the IC50 [2] was over 0.36 µM, the IC50 [3] was over 0.36 µM and the IC50 [4] was over 0.36 µM. For the same compound, the IC50 [1] was over 0.36 µM.
In the case of `Cn1c(-c2ccccc2)nc2cc(S(N)(=O)=O)ccc21`, the IC50 [2] is reported as over 0.36 µM, the IC50 [3] is reported as over 0.36 µM and the IC50 [4] is reported as over 0.36 µM. It also gave an IC50 [1] of over 0.36 µM.
`NS(=O)(=O)c1ccc(CCn2c(SCc3ccc([N+](=O)[O-])cc3)nc3ccccc3c2=O)cc1` showed a Ki [9] of 0.0172 µM.
With `NS(=O)(=O)c1ccc(N/C=C/C(=O)c2ccc(Cl)cc2)cc1` the Ki [10] was 0.0065 µM and the Ki [11] was 0.00021 µM.
In the case of `Cn1c(-c2ccc(Cl)cc2)nc2cc(C(=O)NO)ccc21`, the IC50 [2] is reported as over 0.36 µM, the IC50 [3] is reported as over 0.36 µM and the IC50 [4] is reported as over 0.36 µM. It also gave an IC50 [1] of over 0.36 µM.
`NS(=O)(=O)c1ccc(N2C(=O)c3ccc(C(=O)O)cc3C2=O)cc1` was tested, and the Ki [5] was 0.317 µM, the Ki [6] was 0.0259 µM and the Ki [7] was 0.0541 µM. It also gave a Ki [8] of 0.0541 µM.
Compound `NS(=O)(=O)c1ccc2[nH]c(-c3ccc(Cl)cc3)nc2c1` has an IC50 [2] of over 0.36 µM, an IC50 [3] of over 0.36 µM and an IC50 [4] of over 0.36 µM. The IC50 [1] was over 0.36 µM.
Compound `COC(=O)c1ccc2c(c1)C(=O)N(Cc1ccccc1)C2=O` has a Ki [5] of over 10 µM, a Ki [6] of over 10 µM and a Ki [7] of over 10 µM. The Ki [8] was over 10 µM.
`NS(=O)(=O)c1ccc(CCn2c(SCc3ccc(Cl)cc3)nc3ccccc3c2=O)cc1` gave a Ki [9] of 0.0172 µM and a Ki [11] of 0.0193 µM.
`CCOC(=O)c1ccc(N2C(=O)c3ccc(C(=O)OC)cc3C2=O)cc1` was tested, and the Ki [5] was over 10 µM, the Ki [6] was over 10 µM and the Ki [7] was over 10 µM. For the same compound, the Ki [8] was over 10 µM.
For `Cn1c(-c2ccc(B(O)O)cc2)nc2ccccc21`, the IC50 [2] was over 0.36 µM, the IC50 [3] was over 0.36 µM and the IC50 [4] was over 0.36 µM. For the same compound, the IC50 [1] was over 0.36 µM.
`Cn1c(-c2ccc(Cl)cc2)nc2cc(S(N)(=O)=O)ccc21` was tested, and the IC50 [2] was over 0.36 µM, the IC50 [3] was over 0.36 µM and the IC50 [4] was over 0.36 µM. For the same compound, the IC50 [1] was over 0.36 µM.
`O=C(O)c1ccc2c(c1)C(=O)N(CCc1ccccc1)C2=O` showed a Ki [5] of over 10 µM, a Ki [6] of over 10 µM and a Ki [7] of over 10 µM. The Ki [8] was over 10 µM.
Compound `O=C(O)c1ccc2c(c1)C(=O)N(Cc1ccccc1)C2=O` has a Ki [5] of over 10 µM, a Ki [6] of over 10 µM and a Ki [7] of over 10 µM. The Ki [8] was over 10 µM.
For `N#Cc1ccc(CSc2nc3ccccc3c(=O)n2CCc2ccc(S(N)(=O)=O)cc2)cc1`, the Ki [9] was 0.0172 µM and the Ki [11] was 0.0193 µM.
Compound `COC(=O)c1ccc2c(c1)C(=O)N(Cc1ccc(S(N)(=O)=O)cc1)C2=O` has a Ki [5] of 0.317 µM, a Ki [6] of 0.0259 µM and a Ki [7] of 0.0541 µM. It also gave a Ki [8] of 0.0541 µM.
`Cn1c(-c2ccccn2)nc2cc(S(N)(=O)=O)ccc21` showed an IC50 [2] of over 0.36 µM, an IC50 [3] of 0.0099 µM and an IC50 [4] of over 0.36 µM. The IC50 [1] was 0.0066 µM.
For `NS(=O)(=O)c1ccc2[nH]c(-c3ccccc3)nc2c1`, the IC50 [2] was over 0.36 µM, the IC50 [3] was over 0.36 µM and the IC50 [4] was over 0.36 µM. For the same compound, the IC50 [1] was over 0.36 µM.
With `Cc1ccc(CSc2nc3ccccc3c(=O)n2CCc2ccc(S(N)(=O)=O)cc2)cc1` the Ki [9] was 0.0172 µM and the Ki [11] was 0.0193 µM.
With `O=C1c2ccccc2C(=O)N1CCCSc1nc2ccccc2c(=O)n1CCc1ccccc1` the Ki [9] was 0.0172 µM and the Ki [11] was 0.0193 µM.
With `NS(=O)(=O)c1ccc(C(=O)N/N=C/c2ccccc2O)cc1` the Ki [9] was 0.0086 µM and the Ki [11] was 0.0085 µM.
In the case of `N#CCSc1nc2ccccc2c(=O)n1CCc1ccc(S(N)(=O)=O)cc1`, the Ki [9] is reported as 0.0578 µM and the Ki [11] is reported as 0.0578 µM.
Compound `COC(=O)c1ccc2c(c1)C(=O)N(c1ccc(C(=O)O)cc1)C2=O` has a Ki [5] of over 10 µM, a Ki [6] of over 10 µM and a Ki [7] of over 10 µM. For the same compound, the Ki [8] was over 10 µM.
Work on `NS(=O)(=O)c1ccc(CCN2C(=O)c3ccc(C(=O)O)cc3C2=O)cc1` yielded a Ki [5] of 0.317 µM, a Ki [6] of 0.0259 µM and a Ki [7] of 0.0541 µM. For the same compound, the Ki [8] was 0.0541 µM.
`NS(=O)(=O)c1ccc(C(=O)N/N=C/c2ccc(O)cc2)cc1` gave a Ki [9] of 0.0086 µM and a Ki [11] of 0.0085 µM.
`O=C(O)c1ccc(N2C(=O)c3ccc(C(=O)O)cc3C2=O)cc1` showed a Ki [5] of over 10 µM, a Ki [6] of over 10 µM and a Ki [7] of over 10 µM. It also gave a Ki [8] of over 10 µM.
In the case of `COc1cc(/C=N/NC(=O)c2ccc(S(N)(=O)=O)cc2)ccc1O`, the Ki [9] is reported as 0.0097 µM and the Ki [11] is reported as 0.0085 µM.
`CCN(CC)c1ccc(/C=N/NC(=O)c2ccc(S(N)(=O)=O)cc2)c(O)c1` gave a Ki [9] of 0.0086 µM and a Ki [11] of 0.0158 µM.
`NS(=O)(=O)c1ccc(N/C=C/C(=O)c2cccs2)cc1` showed a Ki [10] of 0.0065 µM and a Ki [11] of 0.00021 µM.
In the case of `NS(=O)(=O)c1ccc(CCn2c(SCc3ccccc3)nc3ccccc3c2=O)cc1`, the Ki [9] is reported as 0.0172 µM and the Ki [11] is reported as 0.0193 µM.
Compound `Cn1c(-c2ccccc2)nc2cc(C(=O)NO)ccc21` has an IC50 [2] of over 0.36 µM, an IC50 [3] of over 0.36 µM and an IC50 [4] of over 0.36 µM. For the same compound, the IC50 [1] was over 0.36 µM.
With `CSc1nc2ccccc2c(=O)n1CCc1ccc(S(N)(=O)=O)cc1` the Ki [9] was 0.0578 µM and the Ki [11] was 0.0578 µM.
`COC(=O)c1ccc2c(c1)C(=O)N(c1ccc(S(N)(=O)=O)cc1)C2=O` showed a Ki [5] of 0.317 µM, a Ki [6] of 0.0259 µM and a Ki [7] of 0.0541 µM. For the same compound, the Ki [8] was 0.046 µM.
In the case of `COC(=O)c1ccc2c(c1)C(=O)N(CCc1ccccc1)C2=O`, the Ki [5] is reported as over 10 µM, the Ki [6] is reported as over 10 µM and the Ki [7] is reported as over 10 µM. For the same compound, the Ki [8] was over 10 µM.
With `NS(=O)(=O)c1ccc(N/C=C/C(=O)c2ccco2)cc1` the Ki [10] was 0.0065 µM and the Ki [11] was 0.00021 µM.
Work on `Cn1c(-c2ccccc2)nc2cc(B(O)O)ccc21` yielded an IC50 [2] of over 0.36 µM, an IC50 [3] of over 0.36 µM and an IC50 [4] of over 0.36 µM. For the same compound, the IC50 [1] was over 0.36 µM.
Compound `Cn1c(-c2ccccc2)nc2cc(C(=O)O)ccc21` has an IC50 [2] of over 0.36 µM, an IC50 [3] of over 0.36 µM and an IC50 [4] of over 0.36 µM. It also gave an IC50 [1] of over 0.36 µM.
Compound `NS(=O)(=O)c1cccc(N/C=C/C(=O)c2ccccc2)c1` has a Ki [10] of 0.0065 µM.
In the case of `NS(=O)(=O)c1ccc2[nH]c(-c3ccccn3)nc2c1`, the IC50 [2] is reported as over 0.36 µM, the IC50 [3] is reported as over 0.36 µM and the IC50 [4] is reported as over 0.36 µM. For the same compound, the IC50 [1] was over 0.36 µM.
`CCOC(=O)c1ccc(N2C(=O)c3ccc(C(=O)O)cc3C2=O)cc1` gave a Ki [5] of over 10 µM, a Ki [6] of over 10 µM and a Ki [7] of over 10 µM. The Ki [8] was over 10 µM.
`Cn1c(-c2ccc(Cl)cc2)nc2cc(C(=O)O)ccc21` was tested, and the IC50 [2] was over 0.36 µM, the IC50 [3] was over 0.36 µM and the IC50 [4] was over 0.36 µM. It also gave an IC50 [1] of over 0.36 µM.
`NS(=O)(=O)c1cccc(N/C=C/C(=O)c2ccc([N+](=O)[O-])cc2)c1` was tested, and the Ki [10] was 0.0065 µM.
`NS(=O)(=O)c1cccc(N/C=C/C(=O)c2cccs2)c1` was tested, and the Ki [10] was 0.0087 µM.
`COc1ccc(C(=O)/C=C/Nc2ccc(S(N)(=O)=O)cc2)cc1` gave a Ki [10] of 0.0065 µM and a Ki [11] of 0.00021 µM.
`NS(=O)(=O)c1ccc(C(=O)N/N=C/c2cccc(O)c2)cc1` gave a Ki [9] of 0.0086 µM and a Ki [11] of 0.0085 µM.
`NS(=O)(=O)c1ccc(CCn2c(SCc3ccc(Br)cc3)nc3ccccc3c2=O)cc1` was tested, and the Ki [9] was 0.0172 µM and the Ki [11] was 0.0193 µM.
Compound `CCSc1nc2ccccc2c(=O)n1CCc1ccc(S(N)(=O)=O)cc1` has a Ki [9] of 0.0578 µM and a Ki [11] of 0.0578 µM.
`NS(=O)(=O)c1ccc(CN2C(=O)c3ccc(C(=O)O)cc3C2=O)cc1` showed a Ki [5] of 0.317 µM, a Ki [6] of 0.0259 µM and a Ki [7] of 0.0541 µM. For the same compound, the Ki [8] was 0.0541 µM.
Work on `COC(=O)c1ccc2c(c1)C(=O)N(CCc1ccc(S(N)(=O)=O)cc1)C2=O` yielded a Ki [5] of 0.317 µM, a Ki [6] of 0.0259 µM and a Ki [7] of 0.0541 µM. It also gave a Ki [8] of 0.0541 µM.
`NS(=O)(=O)c1cccc(N/C=C/C(=O)c2ccc(Br)cc2)c1` showed a Ki [10] of 0.0065 µM.

Source: ChEMBL document CHEMBL5104090, “Recent advances in the medicinal chemistry of carbonic anhydrase inhibitors” (Eur J Med Chem, 2021)
